In US20020137929A1, “1 - (3-heterocyclylphenyl) isothiourea, -isourea, -guanidine and -amidine herbicidal agents” (Intellectual Property Department, BASF Aktiengesellschaft, priority 1998, published 2002):

What was measured:
ECHCG (Barnyardgrass) = experiment: Postemergence herbicidal evaluation; type: in vivo, Echinochloa crus-galli; conditions: postemergence
Procedure, shortened: (§1)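 Young plants, roughly two weeks from seeding, receive the active ingredient as a sprayed dispersion (acetone/water 50/50, 0.5% TWEEN 20) at 40 psi. Doses span about 0.0156 to 0.500 kg/ha. A visual score from 0 to 9 compares treated with control plants four to five weeks on.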

CYPIR (Rice Flatsedge) = experiment: Preemergence weed control under flooded paddy conditions; type: in vivo, Cyperus iria; conditions: rated 3-4 weeks after treatment
Procedure, shortened: (§2)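 Flooded-pot preemergence screen with silt loam and seeds in the upper 0.5 cm. Dose about 0.0313 to 0.500 kg/ha, delivered into flood water; visual 0-9 score after 3 to 4 weeks.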

ABUTH (Velvetleaf) = experiment: Postemergence herbicidal evaluation; type: in vivo, Abutilon theophrasti; conditions: postemergence
Procedure, shortened: as §1

MOOVA (Monochoria) = experiment: Preemergence weed control under flooded paddy conditions; type: in vivo, Monochoria vaginalis; conditions: rated 3-4 weeks after treatment
Procedure, shortened: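 Values are visual 0-9 scores against a control for a preemergence application into paddy flood water at about 0.0313 to 0.500 kg/ha. Greenhouse duration was three to four weeks.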

[1] = test system: ECHORC (Watergrass (Calif.)); experiment: as above; type: in vivo, Echinochloa oryzoides; conditions: rated 3-4 weeks after treatment
Procedure, shortened: as §2

ZEAMX (Corn, Field) = experiment: Preemergence herbicidal evaluation; type: in vivo, Zea mays; conditions: rated 4-5 weeks after treatment, rating scale 0-9
Procedure, shortened: (§3)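 Scores (0–9) reflect visual comparison with control plants for stand, vigor, malformation, size and chlorosis. Compound was applied to the soil after sowing, before emergence, as an aqueous acetone spray (about 0.0156–0.500 kg/ha), and cups were kept in a greenhouse for 4–5 weeks.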

[2] = test system: IPOHE (Morningglory, Ivyleaf); experiment: Preemergence herbicidal evaluation; type: in vivo, Ipomoea hederacea; conditions: rated 4-5 weeks after treatment, rating scale 0-9
Procedure, shortened: as §3

GALAP (Galium) = experiment: Postemergence herbicidal evaluation; type: in vivo, Galium aparine; conditions: postemergence
Procedure, shortened: as §1

[3] = test system: TRZAWR (Wheat, Winter, cv Riband); experiment: Preemergence herbicidal evaluation; type: in vivo, Triticum aestivum; conditions: rated 4-5 weeks after treatment, rating scale 0-9
Procedure, shortened: as §3

ORYSAT (Rice, Tebonnet) = experiment: Postemergence herbicidal evaluation; type: in vivo, Oryza sativa, (L.) Tebonnet; conditions: postemergence
Procedure, shortened: as §1

SETVI (Foxtail, Green) = experiment: Postemergence herbicidal evaluation; type: in vivo, Setaria viridis; conditions: postemergence
Procedure, shortened: as §1

CSCCN1C(=O)CSC1=Nc1cc(-n2c(=O)cc(C(F)(F)F)n(C)c2=O)c(F)cc1Cl [Compound 157]
7.0: herbicidal rating ABUTH (ABUTH (Velvetleaf); rate 0.0156 kg/ha) | herbicidal rating SETVI (SETVI (Foxtail, Green); rate 0.0625 kg/ha)
2.0: herbicidal rating ECHCG (ECHCG (Barnyardgrass); rate 0.0625 kg/ha) | Preemergence herbicidal rating IPOHE ([2]; rate 0.2500 kg/ha) | herbicidal rating GALAP (GALAP (Galium); rate 0.0625 kg/ha) | herbicidal rating ORYSAT (ORYSAT (Rice, Tebonnet); rate 0.0156 kg/ha)
0.0: herbicidal rating ECHCG (ECHCG (Barnyardgrass); rate 0.0156 kg/ha) | herbicidal effect rating, CYPIR (CYPIR (Rice Flatsedge); 0.2500 kg/ha) | herbicidal effect rating, MOOVA (MOOVA (Monochoria); 0.2500 kg/ha) | herbicidal effect rating, ECHORC ([1]; 0.2500 kg/ha) | Preemergence herbicidal rating ZEAMX (ZEAMX (Corn, Field); rate 0.0313 kg/ha) | Preemergence herbicidal rating ZEAMX (ZEAMX (Corn, Field); rate 0.0625 kg/ha) | Preemergence herbicidal rating IPOHE ([2]; rate 0.0313 kg/ha) | Preemergence herbicidal rating IPOHE ([2]; rate 0.0625 kg/ha) | herbicidal rating GALAP (GALAP (Galium); rate 0.0156 kg/ha) | herbicidal rating GALAP (GALAP (Galium); rate 0.0313 kg/ha) | Preemergence herbicidal rating TRZAWR ([3]; rate 0.0313 kg/ha) | Preemergence herbicidal rating TRZAWR ([3]; rate 0.0625 kg/ha) | Preemergence herbicidal rating TRZAWR ([3]; rate 0.1250 kg/ha) | Preemergence herbicidal rating TRZAWR ([3]; rate 0.2500 kg/ha) | herbicidal rating SETVI (SETVI (Foxtail, Green); rate 0.0156 kg/ha)
1.0: herbicidal rating ECHCG (ECHCG (Barnyardgrass); rate 0.0313 kg/ha) | Preemergence herbicidal rating ZEAMX (ZEAMX (Corn, Field); rate 0.1250 kg/ha) | Preemergence herbicidal rating ZEAMX (ZEAMX (Corn, Field); rate 0.2500 kg/ha) | Preemergence herbicidal rating IPOHE ([2]; rate 0.1250 kg/ha) | herbicidal rating SETVI (SETVI (Foxtail, Green); rate 0.0313 kg/ha)
2.5: herbicidal rating ORYSAT (ORYSAT (Rice, Tebonnet); rate 0.0313 kg/ha)
9.0: herbicidal rating ABUTH (ABUTH (Velvetleaf); rate 0.0313 kg/ha) | herbicidal rating ABUTH (ABUTH (Velvetleaf); rate 0.0625 kg/ha)
3.0: herbicidal rating ORYSAT (ORYSAT (Rice, Tebonnet); rate 0.0625 kg/ha)

Cc1cccc(CN2C(=O)CSC2=Nc2cc(-n3c(=O)cc(C(F)(F)F)n(C)c3=O)c(F)cc2Cl)c1 [Compound 130, 3-{4-Chloro-2-fluoro-5-{[3-(m-methylbenzyl)-4-oxo-2-thiazolidinylidene]amino}phenyl}-1-methyl-6-(trifluoromethyl)-2,4 (1H, 3H)-pyrimidinedione]
1.0: Preemergence herbicidal rating ZEAMX (ZEAMX (Corn, Field); rate 0.0313 kg/ha) | Preemergence herbicidal rating TRZAWR ([3]; rate 0.0625 kg/ha)
9.0: herbicidal rating ABUTH (ABUTH (Velvetleaf); rate 0.0156 kg/ha) | herbicidal rating ABUTH (ABUTH (Velvetleaf); rate 0.0313 kg/ha) | herbicidal rating ABUTH (ABUTH (Velvetleaf); rate 0.0625 kg/ha) | Preemergence herbicidal rating ZEAMX (ZEAMX (Corn, Field); rate 0.2500 kg/ha) | Preemergence herbicidal rating IPOHE ([2]; rate 0.1250 kg/ha)
3.0: herbicidal rating ECHCG (ECHCG (Barnyardgrass); rate 0.0625 kg/ha) | herbicidal effect rating, ECHORC ([1]; 0.1250 kg/ha) | herbicidal rating GALAP (GALAP (Galium); rate 0.0313 kg/ha) | Preemergence herbicidal rating TRZAWR ([3]; rate 0.1250 kg/ha) | herbicidal rating ORYSAT (ORYSAT (Rice, Tebonnet); rate 0.0156 kg/ha) | herbicidal rating ORYSAT (ORYSAT (Rice, Tebonnet); rate 0.0313 kg/ha)
3.5: herbicidal rating ORYSAT (ORYSAT (Rice, Tebonnet); rate 0.0625 kg/ha)
2.0: herbicidal rating ECHCG (ECHCG (Barnyardgrass); rate 0.0156 kg/ha) | herbicidal rating ECHCG (ECHCG (Barnyardgrass); rate 0.0313 kg/ha) | herbicidal effect rating, CYPIR (CYPIR (Rice Flatsedge); 0.0625 kg/ha) | herbicidal effect rating, ECHORC ([1]; 0.0625 kg/ha) | Preemergence herbicidal rating IPOHE ([2]; rate 0.0625 kg/ha) | herbicidal rating GALAP (GALAP (Galium); rate 0.0156 kg/ha)
4.0: herbicidal effect rating, CYPIR (CYPIR (Rice Flatsedge); 0.1250 kg/ha) | herbicidal effect rating, ECHORC ([1]; 0.2500 kg/ha) | Preemergence herbicidal rating ZEAMX (ZEAMX (Corn, Field); rate 0.0625 kg/ha) | herbicidal rating SETVI (SETVI (Foxtail, Green); rate 0.0156 kg/ha)
0.0: herbicidal effect rating, CYPIR (CYPIR (Rice Flatsedge); 0.0313 kg/ha) | herbicidal effect rating, MOOVA (MOOVA (Monochoria); 0.0313 kg/ha) | herbicidal effect rating, MOOVA (MOOVA (Monochoria); 0.0625 kg/ha) | herbicidal effect rating, ECHORC ([1]; 0.0313 kg/ha) | Preemergence herbicidal rating ZEAMX (ZEAMX (Corn, Field); rate 0.0156 kg/ha) | Preemergence herbicidal rating IPOHE ([2]; rate 0.0156 kg/ha) | Preemergence herbicidal rating IPOHE ([2]; rate 0.0313 kg/ha) | Preemergence herbicidal rating TRZAWR ([3]; rate 0.0156 kg/ha) | Preemergence herbicidal rating TRZAWR ([3]; rate 0.0313 kg/ha)
5.0: herbicidal rating GALAP (GALAP (Galium); rate 0.0625 kg/ha)
6.0: herbicidal effect rating, CYPIR (CYPIR (Rice Flatsedge); 0.2500 kg/ha) | herbicidal effect rating, MOOVA (MOOVA (Monochoria); 0.1250 kg/ha) | herbicidal effect rating, MOOVA (MOOVA (Monochoria); 0.2500 kg/ha) | Preemergence herbicidal rating TRZAWR ([3]; rate 0.2500 kg/ha) | herbicidal rating SETVI (SETVI (Foxtail, Green); rate 0.0313 kg/ha)
7.0: Preemergence herbicidal rating ZEAMX (ZEAMX (Corn, Field); rate 0.1250 kg/ha) | Preemergence herbicidal rating IPOHE ([2]; rate 0.2500 kg/ha) | herbicidal rating SETVI (SETVI (Foxtail, Green); rate 0.0625 kg/ha)

COc1ccc(CN2C(=O)CSC2=Nc2cc(-n3c(=O)cc(C(F)(F)F)n(C)c3=O)c(F)cc2Cl)cc1OC [Compound 134, 3-{4-Chloro-5-{[3-(3,4-dimethoxybenzyl)-4-oxo-2-thiazolidinylidene]amino}-2-fluorophenyl}-1-methyl-6-(trifluoromethyl)-2,4(1H,3H)-pyrimidinedione]
1.0: herbicidal rating ECHCG (ECHCG (Barnyardgrass); rate 0.0625 kg/ha) | herbicidal rating GALAP (GALAP (Galium); rate 0.0313 kg/ha) | herbicidal rating ORYSAT (ORYSAT (Rice, Tebonnet); rate 0.0156 kg/ha) | herbicidal rating SETVI (SETVI (Foxtail, Green); rate 0.0625 kg/ha)
2.0: herbicidal rating ECHCG (ECHCG (Barnyardgrass); rate 0.0313 kg/ha) | herbicidal effect rating, MOOVA (MOOVA (Monochoria); 0.2500 kg/ha) | herbicidal effect rating, ECHORC ([1]; 0.2500 kg/ha) | herbicidal rating GALAP (GALAP (Galium); rate 0.0625 kg/ha) | herbicidal rating ORYSAT (ORYSAT (Rice, Tebonnet); rate 0.0625 kg/ha)
9.0: herbicidal rating ABUTH (ABUTH (Velvetleaf); rate 0.0625 kg/ha)
1.5: herbicidal rating ORYSAT (ORYSAT (Rice, Tebonnet); rate 0.0313 kg/ha)
7.0: herbicidal rating ABUTH (ABUTH (Velvetleaf); rate 0.0313 kg/ha)
0.0: herbicidal rating ECHCG (ECHCG (Barnyardgrass); rate 0.0156 kg/ha) | Preemergence herbicidal rating ZEAMX (ZEAMX (Corn, Field); rate 0.1250 kg/ha) | Preemergence herbicidal rating ZEAMX (ZEAMX (Corn, Field); rate 0.2500 kg/ha) | Preemergence herbicidal rating IPOHE ([2]; rate 0.1250 kg/ha) | Preemergence herbicidal rating IPOHE ([2]; rate 0.2500 kg/ha) | herbicidal rating GALAP (GALAP (Galium); rate 0.0156 kg/ha) | Preemergence herbicidal rating TRZAWR ([3]; rate 0.1250 kg/ha) | Preemergence herbicidal rating TRZAWR ([3]; rate 0.2500 kg/ha) | herbicidal rating SETVI (SETVI (Foxtail, Green); rate 0.0156 kg/ha) | herbicidal rating SETVI (SETVI (Foxtail, Green); rate 0.0313 kg/ha)
3.0: herbicidal effect rating, CYPIR (CYPIR (Rice Flatsedge); 0.2500 kg/ha)
5.0: herbicidal rating ABUTH (ABUTH (Velvetleaf); rate 0.0156 kg/ha)
